US12054466B2, “Compounds for the treatment of clostridium difficile infection” (University of Notre Dame du Lac, priority 2016, dated 2024)
In brackets after ≈: the same amount, converted by molar mass. Entries after “also recorded” stand apart in the source; their conditions may differ. Read-outs that look alike come from different tables or passages of the source.

Key:
C. difficile [1] = test: MIC against C. difficile (strain not named; 14 strains overall); type: cell-based, Clostridium difficile
C. difficile ATCC43598 = test: MIC, broth microdilution; type: cell-based; conditions: Clostridioides difficile
C. difficile ATCC43255 = test: MIC, broth microdilution; type: cell-based; conditions: Clostridioides difficile
C. difficile BAA-1804 = test: MIC, broth microdilution; type: cell-based; conditions: Clostridioides difficile
C. difficile BAA-1803 = test: MIC, broth microdilution; type: cell-based; conditions: Clostridioides difficile
C. difficile BAA-1801 = test: MIC, broth microdilution; type: cell-based; conditions: Clostridioides difficile
C. difficile BAA-1812 = test: MIC, broth microdilution; type: cell-based; conditions: Clostridioides difficile
C. difficile BAA-1814 = test: MIC, broth microdilution; type: cell-based; conditions: Clostridioides difficile
C. difficile NR49294 = test: MIC, broth microdilution; type: cell-based; conditions: Clostridioides difficile
C. difficile NR49318 = test: MIC, broth microdilution; type: cell-based; conditions: Clostridioides difficile
C. difficile NR49292 = test: MIC, broth microdilution; type: cell-based; conditions: Clostridioides difficile
[2] = system: Bacteroides fragilis HM-709; test: MIC against common gut bacteria; type: cell-based; conditions: Bacteroides fragilis, HM709
Bacteroides fragilis = test: MIC against common gut bacteria; type: cell-based
Bacteroides ovatus = test: MIC against common gut bacteria; type: cell-based
Bacteroides vulgatus = test: MIC against common gut bacteria; type: cell-based; conditions: Phocaeicola vulgatus
Bacteroides eggerthii = test: MIC against common gut bacteria; type: cell-based
Bacteroides caccae = test: MIC against common gut bacteria; type: cell-based
[3] = system: Bifidobacterium longum HM-846; test: MIC against common gut bacteria; type: cell-based; conditions: Bifidobacterium longum, HM846
[4] = system: Corynebacterium sp. HM-784; test: MIC against common gut bacteria; type: cell-based; conditions: Corynebacterium, SP.HM784
Procedure: Minimally-inhibitory concentrations. MICs for C. difficile strains and the common gut bacteria were determined using broth microdilution techniques as reported earlier using brucella broth supplemented with hemin and vitamin K or supplemented BHIS broth (Babakhani et al., J Antimicrob Chemother 2013, 68(3), 515). Lactobacillus MRS broth was used for lactobacillus strains. […] All incubations unless specified otherwise were carried out at 24 or 48 h at 37° C. in an anaerobic chamber (Whitley DG250 workstation, Microbiology International, Frederick, MD). Corynebacterium and lactobacillus species were incubated aerobically.

[5] = system: Fusobacterium nucleatum HM-992; test: MIC against common gut bacteria; type: cell-based; conditions: Fusobacterium nucleatum, HM992
[6] = system: Lactobacillus reuteri HM-102; test: MIC against common gut bacteria; type: cell-based; conditions: Limosilactobacillus reuteri, HM102
[7] = system: Lactobacillus gasseri HM-644; test: MIC against common gut bacteria; type: cell-based; conditions: Lactobacillus gasseri, HM644
Veillonella sp. HM-49 = test: MIC against common gut bacteria; type: cell-based; conditions: Veillonella, SP.HM49
[8] = system: C. difficile strain ATCC 43255; test: Mouse model of recurrent CDI, second study: fecal cell, spore and toxin evaluation; type: in vivo, mice
Procedure: C. difficile Mouse Model. […] A negative vehicle control will be included. […] This study was conducted in duplicates.
A second study was conducted with oxadiazole 2 given po at 20 or 40 mg/kg for 5 days and vancomycin administered at 50 mg/kg po for 5 days. Fecal samples were collected on days 3, 7, and 10 for C. difficile spore and toxin evaluation.

C. difficile infection = conditions: patients treated for CDI; cited from earlier work
C. difficile [9] = conditions: cited from earlier work
[10] = system: C. difficile strain ATCC 43255; test: Mouse model of recurrent CDI, survival; conditions: po once a day for 5 days; oxadiazole 2 20 mg/kg/day, vancomycin 50 mg/kg/day

Compound: CN[C@H](CC(C)C)C(=O)N[C@H]1C(=O)N[C@@H](CC(N)=O)C(=O)N[C@H]2C(=O)N[C@H]3C(=O)N[C@H](C(=O)N[C@H](C(=O)O)c4cc(O)cc(O)c4-c4cc3ccc4O)[C@H](O)c3ccc(c(Cl)c3)Oc3cc2cc(c3O[C@@H]2O[C@H](CO)[C@@H](O)[C@H](O)[C@H]2O[C@H]2C[C@](C)(N)[C@H](O)[C@H](C)O2)Oc2ccc(cc2Cl)[C@H]1O [vancomycin]
- MIC range in 14 C. difficile strains (C. difficile [1]): 0.25 to 1 µg/mL
- MIC (C. difficile ATCC43598; ATCC43598, 24 h, read-out: MIC at 24 h): 1 µg/mL (≈ 0.69 µM)
- MIC (C. difficile ATCC43598; ATCC43598, 48 h, read-out: MIC at 48 h): 1 µg/mL (≈ 0.69 µM)
- MIC (C. difficile ATCC43255; ATCC43255, 24 h, read-out: MIC at 24 h): 0.5 µg/mL (≈ 0.345 µM)
- MIC (C. difficile ATCC43255; ATCC43255, 48 h, read-out: MIC at 48 h): 0.5 µg/mL (≈ 0.345 µM)
- MIC (C. difficile BAA-1804; BAA1804, 24 h, read-out: MIC at 24 h): 1 µg/mL (≈ 0.69 µM)
- MIC (C. difficile BAA-1804; BAA1804, 48 h, read-out: MIC at 48 h): 1 µg/mL (≈ 0.69 µM)
- MIC (C. difficile BAA-1803; BAA1803, 24 h, read-out: MIC at 24 h): 1 µg/mL (≈ 0.69 µM)
- MIC (C. difficile BAA-1803; BAA1803, 48 h, read-out: MIC at 48 h): 2 µg/mL (≈ 1.38 µM)
- MIC (C. difficile BAA-1801; BAA1801, 24 h, read-out: MIC at 24 h): 0.25 µg/mL (≈ 0.173 µM)
- MIC (C. difficile BAA-1801; BAA1801, 48 h, read-out: MIC at 48 h): 0.25 µg/mL (≈ 0.173 µM)
- MIC (C. difficile BAA-1812; BAA1812, 24 h, read-out: MIC at 24 h): 0.25 µg/mL (≈ 0.173 µM)
- MIC (C. difficile BAA-1812; BAA1812, 48 h, read-out: MIC at 48 h): 0.5 µg/mL (≈ 0.345 µM)
- MIC (C. difficile BAA-1814; BAA1814, 24 h, read-out: MIC at 24 h): 0.5 µg/mL (≈ 0.345 µM)
- MIC (C. difficile BAA-1814; BAA1814, 48 h, read-out: MIC at 48 h): 0.5 µg/mL (≈ 0.345 µM)
- MIC (C. difficile NR49294; NR49294, 24 h, read-out: MIC at 24 h): 0.25 µg/mL (≈ 0.173 µM)
- MIC (C. difficile NR49294; NR49294, 48 h, read-out: MIC at 48 h): 0.25 µg/mL (≈ 0.173 µM)
- MIC (C. difficile NR49318; NR49318, 24 h, read-out: MIC at 24 h): 0.25 µg/mL (≈ 0.173 µM)
- MIC (C. difficile NR49318; NR49318, 48 h, read-out: MIC at 48 h): 0.25 µg/mL (≈ 0.173 µM)
- MIC (C. difficile NR49292; NR49292, 24 h, read-out: MIC at 24 h): 0.25 µg/mL (≈ 0.173 µM)
- MIC (C. difficile NR49292; NR49292, 48 h, read-out: MIC at 48 h): 0.25 µg/mL (≈ 0.173 µM)
- MIC [2]: 16 µg/mL (≈ 11 µM)
- MIC (Bacteroides fragilis): 16 µg/mL (≈ 11 µM)
- MIC (Bacteroides ovatus): 16 µg/mL (≈ 11 µM)
- MIC (Bacteroides vulgatus): 16 µg/mL (≈ 11 µM)
- MIC (Bacteroides eggerthii): 8 µg/mL (≈ 5.52 µM)
- MIC (Bacteroides caccae): 32 µg/mL (≈ 22.1 µM)
- MIC [3]: 0.25 µg/mL (≈ 0.173 µM)
- MIC [4]: 0.25 µg/mL (≈ 0.173 µM)
- MIC [5]: 0.25 µg/mL (≈ 0.173 µM)
- MIC [6]: > 32 µg/mL
- MIC [7]: 1 µg/mL (≈ 0.69 µM)
- MIC (Veillonella sp. HM-49): > 32 µg/mL
- Spores in feces ([8]; 50 mg/kg vancomycin, in words): spores were observed on day 10; also recorded: no spores were observed until day 10
- Reduction in vegetative cells in feces by day 10 ([8]; dose of compound 2 not stated): 2 log
- Total cell counts in feces, reduction on day 10 compared to day 3 ([8]; vancomycin 50 mg/kg po for 5 days): 1.02 log
- Toxin in feces ([8]; vancomycin group, day 10, in words): toxin was observed
- Patients with recurrence of the infection (C. difficile infection): About 25%
- Activity against C. difficile spores (C. difficile [9]; at 8× or 80× MIC): not active
- Inhibition of toxin production (C. difficile [9]; at 8×MIC): Neither vancomycin nor metronidazole inhibit toxin production
- Survival after 25 days [10]: 45%
